Assay results published in ChEMBL document CHEMBL2074178, “Passive permeability and P-glycoprotein-mediated efflux differentiate central nervous system (CNS) and non-CNS marketed drugs” (J Pharmacol Exp Ther, 2002).

Experiments:
[1] = target: T1, ATP-dependent translocase ABCB1 (Homo sapiens, UniProt P08183); assay: TP_TRANSPORTER: increase in Calcein-AM intracellular accumulation (Calcein-AM: ? uM, Sumatriptan: 100 uM) in MDR1-expressing MDCKII cells; format: functional, cell-based; settings: dog, mdck-ii
T1 sequence (P08183 whole entry): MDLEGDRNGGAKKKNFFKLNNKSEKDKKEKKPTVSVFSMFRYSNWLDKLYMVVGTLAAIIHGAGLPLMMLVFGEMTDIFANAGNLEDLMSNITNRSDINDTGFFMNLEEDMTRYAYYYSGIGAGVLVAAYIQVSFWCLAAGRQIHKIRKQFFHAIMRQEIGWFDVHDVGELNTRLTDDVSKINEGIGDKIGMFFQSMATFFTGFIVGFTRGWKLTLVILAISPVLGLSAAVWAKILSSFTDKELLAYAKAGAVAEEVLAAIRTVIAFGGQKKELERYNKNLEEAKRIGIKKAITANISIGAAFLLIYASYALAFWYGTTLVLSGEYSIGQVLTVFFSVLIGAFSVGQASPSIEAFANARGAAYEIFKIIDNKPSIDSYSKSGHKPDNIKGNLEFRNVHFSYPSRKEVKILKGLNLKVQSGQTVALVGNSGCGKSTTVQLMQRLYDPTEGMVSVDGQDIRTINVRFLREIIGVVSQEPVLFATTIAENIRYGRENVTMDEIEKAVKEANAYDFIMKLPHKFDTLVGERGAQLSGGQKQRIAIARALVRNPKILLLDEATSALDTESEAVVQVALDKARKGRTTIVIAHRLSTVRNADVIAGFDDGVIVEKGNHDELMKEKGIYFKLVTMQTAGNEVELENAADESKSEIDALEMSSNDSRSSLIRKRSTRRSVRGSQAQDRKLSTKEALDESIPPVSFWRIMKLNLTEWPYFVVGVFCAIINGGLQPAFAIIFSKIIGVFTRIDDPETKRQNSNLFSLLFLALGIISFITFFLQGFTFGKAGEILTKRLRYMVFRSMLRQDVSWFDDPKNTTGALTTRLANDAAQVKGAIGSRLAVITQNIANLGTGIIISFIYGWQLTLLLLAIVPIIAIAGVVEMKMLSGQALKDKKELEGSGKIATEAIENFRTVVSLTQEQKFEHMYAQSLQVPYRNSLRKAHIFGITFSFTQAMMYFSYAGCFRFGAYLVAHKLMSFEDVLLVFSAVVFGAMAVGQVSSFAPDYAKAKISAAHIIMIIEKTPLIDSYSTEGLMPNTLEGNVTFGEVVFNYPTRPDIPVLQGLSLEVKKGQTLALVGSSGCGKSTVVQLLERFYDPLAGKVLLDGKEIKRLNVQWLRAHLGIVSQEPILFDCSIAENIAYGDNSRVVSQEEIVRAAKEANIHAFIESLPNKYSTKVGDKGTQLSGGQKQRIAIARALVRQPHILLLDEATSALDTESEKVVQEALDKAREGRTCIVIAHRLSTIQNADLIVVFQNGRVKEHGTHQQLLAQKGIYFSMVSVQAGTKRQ

[2] = target: T1, ATP-dependent translocase ABCB1; assay: TP_TRANSPORTER: transepithelial transport (basal to apical) in MDR1-expressing MDCKII cells; format: functional, cell-based; settings: dog, mdck-ii
[3] = target: T2, MDR1 (P-glycoprotein, ABCB1) (Homo sapiens, UniProt P08183); assay: TP_TRANSPORTER: increase in Calcein-AM intracellular accumulation (Calcein-AM: ? uM, Amitriptyline: 100 uM) in MDR1-expressing MDCKII cells; format: functional, cell-based, MDCK-II; settings: dog, probe Calcein-AM
T2 sequence (P08183 whole entry): as above

[4] = target: T1, ATP-dependent translocase ABCB1; assay: TP_TRANSPORTER: increase in Calcein-AM intracellular accumulation (Calcein-AM: ? uM, Biperiden: 100 uM) in MDR1-expressing MDCKII cells; format: functional, cell-based; settings: dog, mdck-ii
[5] = target: T2, MDR1 (P-glycoprotein, ABCB1); assay: TP_TRANSPORTER: increase in Calcein-AM intracellular accumulation (Calcein-AM: ? uM, Buspirone: 100 uM) in MDR1-expressing MDCKII cells; format: functional, cell-based, MDCK-II; settings: dog, probe Calcein-AM
[6] = target: T1, ATP-dependent translocase ABCB1; assay: TP_TRANSPORTER: increase in Calcein-AM intracellular accumulation (Calcein-AM: ? uM, Carbamazepine: 100 uM) in MDR1-expressing MDCKII cells; format: functional, cell-based; settings: dog, mdck-ii
[7] = target: T2, MDR1 (P-glycoprotein, ABCB1); assay: TP_TRANSPORTER: increase in Calcein-AM intracellular accumulation (Calcein-AM: ? uM, Chlorprothixene: 100 uM) in MDR1-expressing MDCKII cells; format: functional, cell-based, MDCK-II; settings: dog, probe Calcein-AM
[8] = target: T2, MDR1 (P-glycoprotein, ABCB1); assay: TP_TRANSPORTER: increase in Calcein-AM intracellular accumulation (Calcein-AM: ? uM, Clomipramine: 100 uM) in MDR1-expressing MDCKII cells; format: functional, cell-based, MDCK-II; settings: dog, probe Calcein-AM
[9] = target: T2, MDR1 (P-glycoprotein, ABCB1); assay: TP_TRANSPORTER: increase in Calcein-AM intracellular accumulation (Calcein-AM: ? uM, Desipramine: 100 uM) in MDR1-expressing MDCKII cells; format: functional, cell-based, MDCK-II; settings: dog, probe Calcein-AM
[10] = target: T2, MDR1 (P-glycoprotein, ABCB1); assay: TP_TRANSPORTER: increase in Calcein-AM intracellular accumulation (Calcein-AM: ? uM, Doxepin: 100 uM) in MDR1-expressing MDCKII cells; format: functional, cell-based, MDCK-II; settings: dog, probe Calcein-AM
[11] = target: T1, ATP-dependent translocase ABCB1; assay: TP_TRANSPORTER: increase in Calcein-AM intracellular accumulation (Calcein-AM: ? uM, Flumazenil: 100 uM) in MDR1-expressing MDCKII cells; format: functional, cell-based; settings: dog, mdck-ii
[12] = target: T2, MDR1 (P-glycoprotein, ABCB1); assay: TP_TRANSPORTER: increase in Calcein-AM intracellular accumulation (Calcein-AM: ? uM, […]: 100 uM) in MDR1-expressing MDCKII cells; format: functional, cell-based, MDCK-II; settings: dog, probe Calcein-AM
[13] = target: T2, MDR1 (P-glycoprotein, ABCB1); assay: TP_TRANSPORTER: increase in Calcein-AM intracellular accumulation (Calcein-AM: ? uM, Fluvoxamine: 100 uM) in MDR1-expressing MDCKII cells; format: functional, cell-based, MDCK-II; settings: dog, probe Calcein-AM
[14] = target: T2, MDR1 (P-glycoprotein, ABCB1); assay: TP_TRANSPORTER: increase in Calcein-AM intracellular accumulation (Calcein-AM: ? uM, Haloperidol: 100 uM) in MDR1-expressing MDCKII cells; format: functional, cell-based, MDCK-II; settings: dog, probe Calcein-AM
[15] = target: T1, ATP-dependent translocase ABCB1; assay: TP_TRANSPORTER: increase in Calcein-AM intracellular accumulation (Calcein-AM: ? uM, Imipramine: 100 uM) in MDR1-expressing MDCKII cells; format: functional, cell-based; settings: dog, mdck-ii
[16] = target: T1, ATP-dependent translocase ABCB1; assay: TP_TRANSPORTER: increase in Calcein-AM intracellular accumulation (Calcein-AM: ? uM, Ketamine: 100 uM) in MDR1-expressing MDCKII cells; format: functional, cell-based; settings: dog, mdck-ii
[17] = target: T2, MDR1 (P-glycoprotein, ABCB1); assay: TP_TRANSPORTER: increase in Calcein-AM intracellular accumulation (Calcein-AM: ? uM, Maprotiline: 100 uM) in MDR1-expressing MDCKII cells; settings: dog, probe Calcein-AM
[18] = target: T1, ATP-dependent translocase ABCB1; assay: TP_TRANSPORTER: increase in Calcein-AM intracellular accumulation (Calcein-AM: ? uM, Meprobamate: 100 uM) in MDR1-expressing MDCKII cells; format: functional, cell-based; settings: dog, mdck-ii
[19] = target: T2, MDR1 (P-glycoprotein, ABCB1); assay: TP_TRANSPORTER: increase in Calcein-AM intracellular accumulation (Calcein-AM: ? uM, Metergoline: 100 uM) in MDR1-expressing MDCKII cells; format: functional, cell-based, MDCK-II; settings: dog, probe Calcein-AM
[20] = target: T1, ATP-dependent translocase ABCB1; assay: TP_TRANSPORTER: increase in Calcein-AM intracellular accumulation (Calcein-AM: ? uM, Naltrexone: 100 uM) in MDR1-expressing MDCKII cells; format: functional, cell-based; settings: dog, mdck-ii
[21] = target: T1, ATP-dependent translocase ABCB1; assay: TP_TRANSPORTER: increase in Calcein-AM intracellular accumulation (Calcein-AM: ? uM, Nitrazepam: 100 uM) in MDR1-expressing MDCKII cells; format: functional, cell-based; settings: dog, mdck-ii
[22] = target: T1, ATP-dependent translocase ABCB1; assay: TP_TRANSPORTER: increase in Calcein-AM intracellular accumulation (Calcein-AM: ? uM, Nordazepam: 100 uM) in MDR1-expressing MDCKII cells; format: functional, cell-based; settings: dog, mdck-ii
[23] = target: T1, ATP-dependent translocase ABCB1; assay: TP_TRANSPORTER: increase in Calcein-AM intracellular accumulation (Calcein-AM: ? uM, Selegiline: 100 uM) in MDR1-expressing MDCKII cells; format: functional, cell-based; settings: dog, mdck-ii
[24] = target: T1, ATP-dependent translocase ABCB1; assay: TP_TRANSPORTER: increase in Calcein-AM intracellular accumulation (Calcein-AM: ? uM, Zimeldine: 100 uM) in MDR1-expressing MDCKII cells; format: functional, cell-based; settings: dog, mdck-ii

SMILES: CNS(=O)(=O)Cc1ccc2[nH]cc(CCN(C)C)c2c1
- Activity [1]: is not an inhibitor [-]
- Activity [2]: is not a substrate [-]

SMILES: CN(C)CCC=C1c2ccccc2CCc2ccccc21 [AMITRIPTYLINE]
- Activity [2]: is not a substrate [-]
- inhibition at 100 µM [3]: 25.5%

SMILES: OC(CCN1CCCCC1)(c1ccccc1)C1CC2C=CC1C2 (stereo not given) [BIPERIDEN]
- Activity [2]: is not a substrate [-]
- Activity [4]: is not an inhibitor [-]

SMILES: CC(C)C[C@H]1C(=O)N2CCC[C@H]2[C@]2(O)O[C@](NC(=O)[C@@H]3C=C4c5cccc6[nH]c(Br)c(c56)C[C@H]4N(C)C3)(C(C)C)C(=O)N12 [BROMOCRIPTINE]
- Activity [2]: is not a substrate [-]

SMILES: O=C1CC2(CCCC2)CC(=O)N1CCCCN1CCN(c2ncccn2)CC1 [BUSPIRONE]
- Activity [2]: is not a substrate [-]
- inhibition at 100 µM [5]: 24.1%

SMILES: NC(=O)N1c2ccccc2C=Cc2ccccc21 [CARBAMAZEPINE]
- Activity [2]: is not a substrate [-]
- Activity [6]: is not an inhibitor [-]

SMILES: CN(C)CC/C=C1/c2ccccc2Sc2ccc(Cl)cc21 [CHLORPROTHIXENE]
- Activity [2]: is not a substrate [-]
- inhibition at 100 µM [7]: 57.5%

SMILES: CN(C)CCCN1c2ccccc2CCc2ccc(Cl)cc21 [CLOMIPRAMINE]
- Activity [2]: is not a substrate [-]
- inhibition at 100 µM [8]: 48.2%

SMILES: CNCCCN1c2ccccc2CCc2ccccc21 [DESIPRAMINE]
- inhibition at 100 µM [9]: 12.8%
- Activity [2]: is not a substrate [-]

SMILES: CN(C)CCC=C1c2ccccc2COc2ccccc21 [DOXEPIN]
- Activity [2]: is not a substrate [-]
- inhibition at 100 µM [10]: 15.3%

SMILES: CCOC(=O)c1ncn2c1CN(C)C(=O)c1cc(F)ccc1-2 [FLUMAZENIL]
- Activity [2]: is not a substrate [-]
- Activity [11]: is not an inhibitor [-]

SMILES: CCN(CC)CCN1C(=O)CN=C(c2ccccc2F)c2cc(Cl)ccc21 [FLURAZEPAM]
- Activity [2]: is not a substrate [-]
- inhibition at 100 µM [12]: 22.6%

SMILES: COCCCC/C(=N\OCCN)c1ccc(C(F)(F)F)cc1 [FLUVOXAMINE]
- inhibition at 100 µM [13]: 20.8%
- Activity [2]: is not a substrate [-]

SMILES: O=C(CCCN1CCC(O)(c2ccc(Cl)cc2)CC1)c1ccc(F)cc1 [HALOPERIDOL]
- inhibition at 100 µM [14]: 37.2%
- Activity [2]: is not a substrate [-]

SMILES: CN(C)CCCN1c2ccccc2CCc2ccccc21 [IMIPRAMINE]
- Activity [2]: is not a substrate [-]
- Activity [15]: is not an inhibitor [-]

SMILES: CNC1(c2ccccc2Cl)CCCCC1=O (stereo not given) [KETAMINE]
- Activity [2]: is not a substrate [-]
- Activity [16]: is not an inhibitor [-]

SMILES: CNCCCC12CCC(c3ccccc31)c1ccccc12 [MAPROTILINE]
- inhibition at 100 µM [17]: 36.7%
- Activity [2]: is not a substrate [-]

SMILES: CCCC(C)(COC(N)=O)COC(N)=O [MEPROBAMATE]
- Activity [2]: is not a substrate [-]
- Activity [18]: is not an inhibitor [-]

SMILES: CN1C[C@H](CNC(=O)OCc2ccccc2)C[C@@H]2c3cccc4c3c(cn4C)C[C@H]21 [METERGOLINE]
- Activity [2]: is not a substrate [-]
- inhibition at 100 µM [19]: 84.4%

SMILES: Cc1ncc2n1-c1ccc(Cl)cc1C(c1ccccc1F)=NC2 [MIDAZOLAM]
- Activity [2]: is not a substrate [-]

SMILES: C=CCN1CC[C@]23c4c5ccc(O)c4O[C@H]2C(=O)CC[C@@]3(O)[C@H]1C5 [NALOXONE]
- Activity [2]: is not a substrate [-]

SMILES: O=C1CC[C@@]2(O)[C@H]3Cc4ccc(O)c5c4[C@@]2(CCN3CC2CC2)[C@H]1O5 [NALTREXONE]
- Activity [2]: is not a substrate [-]
- Activity [20]: is not an inhibitor [-]

SMILES: O=C1CN=C(c2ccccc2)c2cc([N+](=O)[O-])ccc2N1 [NITRAZEPAM]
- Activity [2]: is not a substrate [-]
- Activity [21]: is not an inhibitor [-]

SMILES: O=C1CN=C(c2ccccc2)c2cc(Cl)ccc2N1 [NORDAZEPAM]
- Activity [2]: is not a substrate [-]
- Activity [22]: is not an inhibitor [-]

SMILES: C#CCN(C)[C@H](C)Cc1ccccc1 [SELEGILINE]
- Activity [2]: is not a substrate [-]
- Activity [23]: is not an inhibitor [-]

SMILES: Nc1c2c(nc3ccccc13)CCCC2 [TACRINE]
- Activity [2]: is not a substrate [-]

SMILES: CN(C)C/C=C(/c1ccc(Br)cc1)c1cccnc1 [ZIMELDINE]
- Activity [2]: is not a substrate [-]
- Activity [24]: is not an inhibitor [-]
